Laboratory results reported in US20120207763A1, “PYRROLOPYRIMIDINE COMPOUNDS AND THEIR USES” (ASTEX THERAPEUTICS LIMITED, priority 2006, published 2012).
Values joined by “and” are separate entries in the source; they are usually repeats but may differ in a detail not shown here. Equal entries are not always repeated. Where two headings read alike, the source gives them in different places.

How the values were obtained:
Type in all cases: biochemical
JAK-3 = target: T1, JAK-3 (Homo sapiens, UniProt P52333); assay: JAK LANCE enzymatic assay (JAK-3)
T1 construct: GST fusion constructs of the kinase domains of both enzymes are used; GST
Source text: Binding of cytokines and certain growth factors to their respective receptors trigger activation of Janus kinases, which phosphorylate members of the STAT family. Phosphorylated STAT molecules dimerize and migrate to the nucleus where they bind to DNA and initiate transcription of responsive genes. Inhibitors of pathways downstream of cytokine/growth factor receptors have therapeutic potential for several indications. An enzymatic assay for JAK-3 and JAK-2 has been developed to identify T-cell selective inhibitors. GST fusion constructs of the kinase domains of both enzymes are used and a biotinylated, tyrosine containing peptide serves as substrate. Phosphorylation of this peptide by the respective kinase is quantified with an europium-labeled anti-phosphotyrosine antibody (Eu-PT66) as energy donor and a streptavidin-allophycocyanine conjugate (SA-APC) as energy acceptor. The assay has been established in a 384 well format.
In the JAK LANCE™ assay, a biotinylated peptide is incubated together with compounds and ATP in buffer. The phosphorylation reaction starts after addition of JAK kinase. After incubation at RT the reaction is stopped with EDTA and the product detected by addition Streptavidin-Allophycocyanin and Europium-labeled antiphosphotyrosine antibody. The signal is measured using an EnVision Reader. Exc: 320 nm, Em, Donor: 615 nm and Em, Acceptor: 665 nm in time resolved fashion with a delay of […].

hCDK1/B = hCDK1/B (Homo sapiens, UniProt P06493); assay: hCDK1/B assay; details: Table E; read-out: hCDK1/B/IC50 [umol l − 1]
CDK4 = CDK4 (Homo sapiens, UniProt P11802); assay: CDK4 HTRF assay; details: Table E; read-out: CDK4 HTRF/IC50 [umol l − 1]
[1] = target: CDK2/Cyclin-A kinase complex (Homo sapiens, UniProt P24941); assay: CDK2 IMAP fluorescence polarization assay; details: Table E; read-out: CDK2cyA IMAP/IC50 [umol l − 1]
Source text: In order to test the CDK2 activity of the compounds of the invention, the CDK2 assay is a flourescence polarization assay, where the enzyme is a purified active CDK2/Cyclin-A kinase complex and the substrate is a synthesized peptide derived from Histone H1. This assay utilizes the IMAP technology from Molecular Devices. The active CDK2/Cyclin-A complex phosphorylates the peptide substrate, which is conjugated with the TAMRA tag. The phosphorylated site is then recognized by a metal containing molecule that interacts with the TAMRA tag to induce a high flourescence polarization. The compounds that inhibit the CDK2 kinase activity would inhibit the flourescence output of the assay.

[2] = Table B, read-out: Jak-3 Lance/ IC50 [nmol I-1]

Chain of CDK4 (P11802 whole entry): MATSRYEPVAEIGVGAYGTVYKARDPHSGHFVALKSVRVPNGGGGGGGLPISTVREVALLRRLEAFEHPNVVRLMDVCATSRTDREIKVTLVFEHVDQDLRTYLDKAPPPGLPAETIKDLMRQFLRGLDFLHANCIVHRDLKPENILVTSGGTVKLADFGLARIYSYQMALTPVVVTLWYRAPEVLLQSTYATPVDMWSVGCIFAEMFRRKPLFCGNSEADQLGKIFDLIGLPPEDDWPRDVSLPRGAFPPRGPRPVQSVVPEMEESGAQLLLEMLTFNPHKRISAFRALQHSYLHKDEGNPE
Chain of CDK4 (P24385 whole entry partner): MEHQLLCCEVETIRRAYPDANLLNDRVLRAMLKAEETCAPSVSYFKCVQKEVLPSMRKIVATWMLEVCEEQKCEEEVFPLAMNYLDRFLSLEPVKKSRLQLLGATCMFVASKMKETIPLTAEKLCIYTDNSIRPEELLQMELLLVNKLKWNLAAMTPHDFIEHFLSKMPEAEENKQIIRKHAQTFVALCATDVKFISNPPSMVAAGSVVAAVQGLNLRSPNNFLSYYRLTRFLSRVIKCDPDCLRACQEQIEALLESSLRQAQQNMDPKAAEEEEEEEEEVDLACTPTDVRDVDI
Chain of hCDK1/B (P06493 whole entry): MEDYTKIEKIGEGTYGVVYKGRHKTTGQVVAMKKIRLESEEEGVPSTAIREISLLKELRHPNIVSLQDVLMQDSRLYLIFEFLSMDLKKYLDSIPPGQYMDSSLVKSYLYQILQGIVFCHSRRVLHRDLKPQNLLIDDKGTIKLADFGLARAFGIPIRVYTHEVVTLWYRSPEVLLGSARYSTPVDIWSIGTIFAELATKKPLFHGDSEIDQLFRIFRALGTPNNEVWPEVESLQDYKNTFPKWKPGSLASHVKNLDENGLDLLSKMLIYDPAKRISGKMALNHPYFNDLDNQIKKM
Chain of hCDK1/B (P14635 whole entry partner): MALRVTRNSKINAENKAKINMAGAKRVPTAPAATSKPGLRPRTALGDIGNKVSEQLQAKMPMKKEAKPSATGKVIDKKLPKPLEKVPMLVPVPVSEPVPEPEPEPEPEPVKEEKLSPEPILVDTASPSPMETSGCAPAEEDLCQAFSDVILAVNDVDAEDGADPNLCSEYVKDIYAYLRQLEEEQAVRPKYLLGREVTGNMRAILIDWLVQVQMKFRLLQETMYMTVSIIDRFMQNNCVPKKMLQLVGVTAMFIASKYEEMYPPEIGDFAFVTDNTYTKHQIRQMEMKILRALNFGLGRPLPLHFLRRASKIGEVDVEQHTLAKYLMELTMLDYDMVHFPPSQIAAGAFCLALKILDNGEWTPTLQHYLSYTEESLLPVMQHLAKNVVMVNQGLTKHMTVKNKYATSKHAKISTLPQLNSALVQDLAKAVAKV
T1 sequence (P52333 822-1111 limits assumed): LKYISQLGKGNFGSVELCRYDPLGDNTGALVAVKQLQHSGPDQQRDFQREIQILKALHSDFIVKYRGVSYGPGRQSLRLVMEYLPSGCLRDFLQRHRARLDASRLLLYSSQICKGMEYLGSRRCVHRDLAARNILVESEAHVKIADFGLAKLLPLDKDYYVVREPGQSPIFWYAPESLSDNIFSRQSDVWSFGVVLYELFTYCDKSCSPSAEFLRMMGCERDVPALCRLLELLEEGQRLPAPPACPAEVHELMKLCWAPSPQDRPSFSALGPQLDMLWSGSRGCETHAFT

SMILES	IC50 (JAK-3; [2]) [µM]	IC50 (hCDK1/B) [µM]	IC50 [1] [µM]	other results
CCC(CC)N1C(=O)Cc2cnc(Nc3ccc(N4CCCCC4)cc3)nc21	–	–	–	IC50 (JAK-3; Table A, read-out: Jak-3/ IC50): ≥ 0.1 µM
CCC(CC)N1C(=O)C(C)(C)c2cnc(Nc3ccc(N4CCN(C(C)=O)CC4)cc3)nc21	–	–	–	IC50 (JAK-3; Table A, read-out: Jak-3/ IC50): ≥ 0.1 µM
Cc1cn(C2CCCC2)c2nc(Nc3ccc(N4CCN(C)CC4)cc3)ncc12	≥ 0.1	–	–	–
c1cc(N2CCNCC2)ccc1Nc1ncc2ccn(C3CCCCCC3)c2n1 [Example 232]	–	> 10	–	IC50 (CDK4): > 10 µM and < 1 µM
OC1CCC(n2ccc3cnc(Nc4ccc(N5CCNCC5)cc4)nc32)C1 (stereo not shown) [Example 247]	–	< 1	< 1	IC50 (CDK4): < 1 µM
OC[C@@H]1CCC(n2ccc3cnc(Nc4ccc(N5CCNCC5)cc4)nc32)C1 (stereo partly shown) [Example 250]	–	< 1	< 1	IC50 (CDK4): < 1 µM
Cc1cn(C2CCCC2)c2nc(Nc3ccc(N4CCNCC4)cn3)ncc12 [Example 267]	–	> 10	–	–
Cc1cn(C2CCCC2)c2nc(Nc3ccc(N4CCCCC4)cc3)ncc12 [Example 278]	–	> 10	> 10	–
Cc1cn(C2CCCC2)c2nc(Nc3ccc4[nH]c(=O)[nH]c4c3)ncc12 [Example 279]	–	< 10	< 10	IC50 (CDK4): < 1 µM
Cc1cn(C2CCCC2)c2nc(Nc3ccc4[nH]ncc4c3)ncc12 [Example 281]	–	< 10	< 10	–
Cc1cn(C2CCCC2)c2nc(Nc3ccc(CN4CCNC(=O)C4)cc3)ncc12 [Example 290]	–	< 10	< 10	IC50 (CDK4): < 1 µM
Cc1cn(C2CCCC2)c2nc(Nc3ccc(C(=O)N4CCOCC4)cc3)ncc12 [Example 292]	–	< 10	< 10	–
Cc1cn(C2CCCC2)c2nc(Nc3ccc(N4CCOCC4)cn3)ncc12 [Example 302]	–	> 10	> 10	–
Cc1cn(C2CCCC2)c2nc(Nc3nccc4ccccc34)ncc12 [Example 303]	–	> 10	> 10	IC50 (CDK4): > 10 µM
Cc1cn(C2CCCC2)c2nc(Nc3ccc(N4CCOCC4)cc3)ncc12 [Example 305]	–	< 10	< 10	IC50 (CDK4): > 10 µM
Cc1cn(C2CCCC2)c2nc(Nc3ccc(N(C)C)cc3)ncc12 [Example 311]	–	> 10	> 10	–
CCC(CC)n1c(C(=O)Nc2ccc(C(C)(C)C)cc2)cc2cnc(Nc3ccc(N4CCNCC4)cc3)nc21 [Example 349]	–	> 15	> 15	–
CCC(CC)n1c(C(=O)Nc2ccc(CN3CCN(C)CC3)cc2)cc2cnc(Nc3ccc(N4CCNCC4)cc3)nc21 [Example 354]	–	> 15	> 15	–
CCC(CC)n1c(CNc2cccnc2)cc2cnc(Nc3ccc(N4CCN(C(C)=O)CC4)cc3)nc21 [Example 369]	–	< 10	< 10	–
CCC(CC)n1c(CNC2CCCC2)cc2cnc(Nc3ccc(N4CCN(C(C)=O)CC4)cc3)nc21 [Example 370]	–	< 10	< 10	–
CCC(CC)n1c(CNc2ccon2)cc2cnc(Nc3ccc(N4CCN(C(C)=O)CC4)cc3)nc21 [Example 371]	–	< 1	< 10	–
CCC(CC)n1c(CNc2cc(C)[nH]n2)cc2cnc(Nc3ccc(N4CCN(C(C)=O)CC4)cc3)nc21 [Example 372]	–	< 10	< 1	–

SMILES	IC50 (JAK-3; [2]) [µM]	IC50 (hCDK1/B) [µM]	IC50 [1] [µM]	other results
Cc1c(C(=O)N(C)C)n(C2CCCC2)c2nc(Nc3ccc(N4CCNCC4)cn3)ncc12 [Example 392]	–	> 10	< 10	–
CCC(CC)n1c(CNCc2ccco2)cc2cnc(Nc3ccc(N4CCN(C(C)=O)CC4)cc3)nc21 [Example 449]	–	< 10	< 10	–
COc1ccc(C(=O)N2CCOCC2)cc1Nc1ncc2c(n1)NC(=O)C2 [drawing 17]	–	–	–	IC50 (JAK-3; Table A, read-out: Jak-3/ IC50): ≥ 0.1 µM
COc1ccc(C(=O)N2CCN(C)CC2)cc1Nc1ncc2c(n1)NC(=O)C2 [drawing 18]	–	–	–	IC50 (JAK-3; Table A, read-out: Jak-3/ IC50): ≥ 0.1 µM
COc1ccc(C(=O)N2CCOCC2)cc1Nc1ncc2c(n1)NC(=O)C2 [drawing 19]	–	–	–	IC50 (JAK-3; Table A, read-out: Jak-3/ IC50): ≥ 0.1 µM
COc1ccc(C(=O)N2CCN(C)CC2)cc1Nc1ncc2c(n1)NC(=O)C2 [drawing 20]	–	–	–	IC50 (JAK-3; Table A, read-out: Jak-3/ IC50): ≥ 0.1 µM
CCC(CC)n1ccc2cnc(Nc3ccc(N4CCN(C(C)=O)CC4)cc3)nc21 [drawing 51]	–	–	–	IC50 (JAK-3; Table A, read-out: Jak-3/ IC50): ≤ 0.1 µM
CCC(CC)n1ccc2cnc(Nc3ccc(N4CCN(C(C)=O)CC4)cn3)nc21 [drawing 81]	–	–	–	IC50 (JAK-3; Table A, read-out: Jak-3/ IC50): ≥ 0.1 µM
CCC(CC)n1ccc2cnc(Nc3ccc(N4CCN(C)CC4)cn3)nc21 [drawing 82]	–	–	–	IC50 (JAK-3; Table A, read-out: Jak-3/ IC50): ≥ 0.1 µM
CCC(CC)n1ccc2cnc(Nc3ccc(N4CCN(C)CC4)c(F)c3)nc21 [drawing 83]	–	–	–	IC50 (JAK-3; Table A, read-out: Jak-3/ IC50): ≤ 0.1 µM
CCC(CC)n1ccc2cnc(Nc3ccc(C(=O)NC4CCCC4)cc3)nc21 [drawing 99]	≤ 0.1	–	–	–
CCC(CC)n1ccc2cnc(NC3CC3)nc21 [drawing 100]	≥ 0.1	–	–	–
CCC(CC)n1cc(C)c2cnc(Nc3ccc(N4CCN(C(C)=O)CC4)cc3)nc21 [drawing 101]	≥ 0.1	–	–	–
CCC(CC)n1cc(C)c2cnc(Nc3ccc(N4CCN(C)CC4)cc3)nc21 [drawing 103]	≥ 0.1	–	–	–
CCC(CC)N1C(=O)C(C)(C)c2cnc(Nc3ccc(N4CCN(C)CC4)cc3)nc21 [drawing 105]	≥ 0.1	–	–	–
CC(=O)N1CCN(c2ccc(Nc3ncc4ccn(C5CCCC5)c4n3)cc2)CC1 [drawing 111]	≥ 0.1	–	–	–
CCC(CC)N1C(=O)C(C)(C)c2cnc(Nc3ccc(N4CCNCC4)cc3)nc21 [drawing 112]	≥ 0.1	–	–	–
Cc1cn(C2CCCCC2)c2nc(Nc3ccc(N4CCN(C)CC4)cc3)ncc12 [drawing 115]	≥ 0.1	–	–	–
CCC(CC)n1c(C=O)cc2cnc(Nc3ccc(N4CCN(C(C)=O)CC4)cc3)nc21 [drawing 118]	≤ 0.1	–	–	–
Cc1cn(C2CC2)c2nc(Nc3ccc(N4CCNCC4)cn3)ncc12 [drawing 123]	≥ 0.1	–	–	–
CCC(CC)n1c(C)cc2cnc(Nc3ccc(C(=O)NC4CCCC4)cc3)nc21 [drawing 124]	≥ 0.1	–	–	–
CCC(CC)n1c(C)cc2cnc(Nc3ccc(N4CCNCC4)cc3)nc21 [drawing 125]	≤ 0.1	–	–	–

The next lines start with results.

IC50 (JAK-3; [2]) [µM]	IC50 (hCDK1/B) [µM]	IC50 [1] [µM]	SMILES	other results
≥ 0.1	–	–	Cc1cn(C2CCCCC2)c2nc(Nc3ccc(N4CCNCC4)cc3)ncc12	–
–	< 10	< 10	CC(=O)N1CCN(c2ccc(Nc3ncc4ccn(C5CCC(C)C5)c4n3)cc2)CC1 (stereo not shown) [Example 238]	IC50 (CDK4): < 1 µM
–	< 1	< 10	CC1CCC(n2ccc3cnc(Nc4ccc(N5CCNCC5)cc4)nc32)C1 (stereo not shown) [Example 239]	IC50 (CDK4): < 1 µM
–	< 10	–	Cc1cn(C2CCCC2)c2nc(Nc3ccc(N4CCNCC4)cc3)ncc12 [Example 266]	IC50 (CDK4): < 1 µM
–	> 10	> 10	Cc1cn(C2CCCC2)c2nc(Nc3ccccc3)ncc12 [Example 277]	IC50 (CDK4): > 10 µM
–	> 15	> 15	Cc1cn(C2CCCC2)c2nc(Nc3ccc(N4CCCCC4)nc3)ncc12 [Example 284]	IC50 (CDK4): > 10 µM
–	< 10	> 10	Cc1cn(C2CCCC2)c2nc(Nc3ccc(CCN4CCOCC4)cc3)ncc12 [Example 291]	IC50 (CDK4): < 1 µM
–	> 10	> 10	Cc1cn(C2CCCC2)c2nc(Nc3ccncn3)ncc12 [Example 304]	IC50 (CDK4): > 10 µM
–	< 10	< 10	Cc1cn(C2CCCC2)c2nc(Nc3ccc(-n4ccnc4)cc3)ncc12 [Example 312]	–
–	> 15	> 15	Cc1cn(C2CCCC2)c2nc(Nc3ccc(CN4CCN(C(=O)OC(C)(C)C)CC4)cc3)ncc12 [Example 462]	–
–	< 10	< 10	Cc1cn(C2CCCC2)c2nc(Nc3ccc(CO)cc3)ncc12 [Example 466]	–
–	> 15	> 15	CN(C)C(=O)c1cc2cnc(NCc3ccc(N4CCNCC4)cc3)nc2n1C1CCCC1 [Example 467]	–
≥ 0.1	–	–	Cc1cn(C2CCCC2)c2nc(Nc3ccc(N4CCNCC4)cn3)ncc12 [drawing 97]	–
≥ 0.1	–	–	CCC(CC)n1cc(C)c2cnc(Nc3ccc(C(=O)NC4CCCC4)cc3)nc21 [drawing 116]	–
≥ 0.1	–	–	CCOC(OCC)c1cc2cnc(Nc3ccc(N4CCN(C(C)=O)CC4)cc3)nc2n1C(CC)CC [drawing 117]	–
≤ 0.1	–	–	CCC(CC)n1c(CO)cc2cnc(Nc3ccc(N4CCN(C(C)=O)CC4)cc3)nc21 [drawing 119]	–
≥ 0.1	–	–	CC(=O)N1CCN(c2ccc(Nc3ncc4c(C)cn(C5CCCCC5)c4n3)cc2)CC1 [drawing 120]	–
≥ 0.1	–	–	Cc1cn(C2CC2)c2nc(Nc3ccc(N4CCN(C)CC4)cc3)ncc12 [drawing 121]	–
≥ 0.1	–	–	Cc1cn(C2CCCCC2)c2nc(Nc3ccc(N4CCNCC4)cn3)ncc12 [drawing 127]	–
